Laboratory results reported in patent US20190022165A1, “METHODS AND COMPOSITIONS FOR THE TREATMENT AND PREVENTION OF PULMONARY ARTERIAL HYPERTENSION” (STEALTH BIOTHERAPEUTICS CORP, priority 2016, published 2019).

What was measured:
[1] = test system: several mammalian cell types; conditions: cited from earlier work
[2] = test system: heart failure subjects with reduced ejection fraction (HFrEF≤35%); experiment: Single ascending dose trial, 2-D echocardiography: right ventricular fractional area change (RV FAC); assay type: in vivo, human; conditions: for RV FAC Δ from baseline, Mean Active Group with 95% CI: Cohort 3, 0.25 mg/kg/hour IV 4-hour infusion
Method: (§1) A single-center, randomized, double-blind, placebo-controlled, single ascending dose trial of D-Arg-2′6′-Dmt-Lys-Phe-NH2 was performed in heart failure subjects aged 45-80 years (n=36) with reduced ejection fraction (HFrEF≤35%). Three sequential dose-escalation cohorts were enrolled and administered a single intravenous (IV) dose of D-Arg-2′6′-Dmt-Lys-Phe-NH2 by a 4-hour infusion. In each cohort, 8 subjects were randomly assigned to receive D-Arg-2′6′-Dmt-Lys-Phe-NH2 (active group) and 4 to receive placebo (placebo group infused with 0.9% saline solution in the same manner as the D-Arg-2′6′-Dmt-Lys-Phe-NH2 active group). Eligible subjects were admitted to the research unit on Day 1, were randomized and received the study drug infusion on Day 2 and were discharged on Day 3. Subjects returned to the research unit on Day 7 (+3) for follow-up. The dose levels of D-Arg-2′6′-Dmt-Lys-Phe-NH2 in Cohorts 1, 2, and 3 were 0.005, 0.05, and 0.25 mg/kg/hour, respectively.
(§2) A single dose of the aromatic-cationic peptide, D-Arg-2′6′-Dmt-Lys-Phe-NH2, was administered intravenously (IV) at 0.005 mg/kg/hour (Cohort 1; low dose), 0.05 mg/kg/hour (Cohort 2; intermediate dose), and 0.25 mg/kg/hour (Cohort 3; high dose) over 4 hours at 60 mL/hour.
(§3) Echocardiograms (2-D) were performed on Day 2 at pre-dose (0-hr), mid-dose (2-hr), end-dose (4-hr), and 6 hours, 8 hours, 12 hours after infusion initiation, and at Day 3 at 24 hours after infusion initiation in every subject. Primary echo endpoints included end-diastolic volume (EDV) and EDV index, and end-systolic volume (ESV) and ESV index. Secondary echo endpoints included left atrial (LA) volume, right ventricular fractional area change (RV FAC), and right ventricular systolic pressure (RVSP). Exploratory echo endpoints included global longitudinal strain.
(§4) All statistical analyses, summary tables and data listings were prepared using SAS software Version 9.2 or higher. Overall differences in pharmacokinetic parameters of systemic exposure (e.g., Cmax and AUC) across the 3 different dosing regimens were evaluated by ANOVA. In general, significance was determined at the p<0.05 level. For continuous variables, descriptive statistics (sample size, mean, standard deviation, median, minimum, and maximum values) were determined. For discrete variables, frequency distributions were generated.

[3] = test system: heart failure subjects with reduced ejection fraction (HFrEF≤35%); experiment: Single ascending dose trial, 2-D echocardiography: right ventricular systolic pressure (RVSP); assay type: in vivo, human
Method: as §1, §2, §3, §4

[4] = Cohort 3, 0.25 mg/kg/hour, 6 Hours
[5] = Cohort 3, 0.25 mg/kg/hour, 8 Hours
[6] = Cohort 3, 0.25 mg/kg/hour, 12 Hours
[7] = Cohort 3, 0.25 mg/kg/hour, 24 Hours
[8] = Cohort 3, 0.25 mg/kg/hour, End-Dose
[9] = Cohort 3, 0.25 mg/kg/hour, Mid-Dose

2′,6′-Dmt-D-Arg-Phe-Lys-NH2
penetration of the plasma membrane [1]: readily penetrates the plasma membrane of several mammalian cell types in an energy-independent manner

D-Arg-2′6′-Dmt-Lys-Phe-NH2
right ventricular fractional area change (RV FAC), in words ([2]; Cohort 3, 0.25 mg/kg/hour): overall improvement in right ventricular fractional area change (RV FAC)
RV FAC Δ from baseline, Mean Active Group with 95% CI ([2]; 6 Hours): 2.6 (−0.7, 5.9) %
RV FAC Δ from baseline, Mean Active Group with 95% CI ([2]; 8 Hours): 3.4 (−0.7, 7.5) %
RV FAC Δ from baseline, Mean Active Group with 95% CI ([2]; 12 Hours): 1.7 (−4.0, 7.4) %
RV FAC Δ from baseline, Mean Active Group with 95% CI ([2]; 24 Hours): 2.5 (−2.0, 7.0) %
RV FAC Δ from baseline, Mean Active Group with 95% CI ([2]; End-Dose): 0.3 (−4.8, 5.5) %
RV FAC Δ from baseline, Mean Active Group with 95% CI ([2]; Mid-Dose): 1.6 (−2.6, 5.8) %
RV FAC Δ from baseline, Mean Difference (active vs pooled placebo) [2, 4]: 3.8%
RV FAC Δ from baseline, Mean Difference (active vs pooled placebo) [2, 5]: 4.6%
RV FAC Δ from baseline, Mean Difference (active vs pooled placebo) [2, 6]: 8.9%
RV FAC Δ from baseline, Mean Difference (active vs pooled placebo) [2, 7]: 3.8%
RV FAC Δ from baseline, Mean Difference (active vs pooled placebo) [2, 8]: 0.3%
RV FAC Δ from baseline, Mean Difference (active vs pooled placebo) [2, 9]: 3.8%
RVSP Δ from baseline, Mean Active Group ([3]; Cohort 2, 0.05 mg/kg/hour IV 4-hour infusion, 6 Hours): −4.8 mmHg
RVSP Δ from baseline, Mean Active Group ([3]; Cohort 2, 0.05 mg/kg/hour IV 4-hour infusion, 8 Hours): −6.5 mmHg
RVSP Δ from baseline, Mean Active Group ([3]; Cohort 2, 0.05 mg/kg/hour IV 4-hour infusion, 12 Hours): −5.6 mmHg
RVSP Δ from baseline, Mean Active Group ([3]; Cohort 2, 0.05 mg/kg/hour IV 4-hour infusion, 24 Hours): −5.3 mmHg
RVSP Δ from baseline, Mean Active Group ([3]; Cohort 2, 0.05 mg/kg/hour IV 4-hour infusion, End-Dose): −9.9 mmHg
RVSP Δ from baseline, Mean Active Group ([3]; Cohort 2, 0.05 mg/kg/hour IV 4-hour infusion, Mid-Dose): −8.5 mmHg
RVSP Δ from baseline, Mean Difference (active vs pooled placebo) ([3]; Cohort 2, 0.05 mg/kg/hour, 6 Hours): −4.4 mmHg
RVSP Δ from baseline, Mean Difference (active vs pooled placebo) ([3]; Cohort 2, 0.05 mg/kg/hour, 8 Hours): −4.4 mmHg
RVSP Δ from baseline, Mean Difference (active vs pooled placebo) ([3]; Cohort 2, 0.05 mg/kg/hour, 12 Hours): −9.7 mmHg
RVSP Δ from baseline, Mean Difference (active vs pooled placebo) ([3]; Cohort 2, 0.05 mg/kg/hour, 24 Hours): −5.0 mmHg
RVSP Δ from baseline, Mean Difference (active vs pooled placebo) ([3]; Cohort 2, 0.05 mg/kg/hour, End-Dose): −19.1 mmHg
RVSP Δ from baseline, Mean Difference (active vs pooled placebo) ([3]; Cohort 2, 0.05 mg/kg/hour, Mid-Dose): −8.2 mmHg
pulmonary pressures (RVSP) relative to baseline, in words ([3]; Cohort 2, 0.05 mg/kg/hour, at end dose): significant decrease in pulmonary pressures (RVSP)
RVSP Δ from baseline, Mean Active Group ([3]; Cohort 3, 0.25 mg/kg/hour IV 4-hour infusion, 6 Hours): −11.7 mmHg
RVSP Δ from baseline, Mean Active Group ([3]; Cohort 3, 0.25 mg/kg/hour IV 4-hour infusion, 8 Hours): −1.3 mmHg
RVSP Δ from baseline, Mean Active Group ([3]; Cohort 3, 0.25 mg/kg/hour IV 4-hour infusion, 12 Hours): 2.6 mmHg
RVSP Δ from baseline, Mean Active Group ([3]; Cohort 3, 0.25 mg/kg/hour IV 4-hour infusion, 24 Hours): −1.6 mmHg
RVSP Δ from baseline, Mean Active Group ([3]; Cohort 3, 0.25 mg/kg/hour IV 4-hour infusion, End-Dose): −1.2 mmHg
RVSP Δ from baseline, Mean Active Group ([3]; Cohort 3, 0.25 mg/kg/hour IV 4-hour infusion, Mid-Dose): 0.9 mmHg
RVSP Δ from baseline, Mean Difference (active vs pooled placebo) [3, 4]: −11.3 mmHg
RVSP Δ from baseline, Mean Difference (active vs pooled placebo) [3, 5]: 0.9 mmHg
RVSP Δ from baseline, Mean Difference (active vs pooled placebo) [3, 6]: −1.5 mmHg
RVSP Δ from baseline, Mean Difference (active vs pooled placebo) [3, 7]: −1.3 mmHg
RVSP Δ from baseline, Mean Difference (active vs pooled placebo) [3, 8]: −10.3 mmHg
RVSP Δ from baseline, Mean Difference (active vs pooled placebo) [3, 9]: 1.1 mmHg
